According to patent US8188117B2, “Piperidinyl-substituted isoquinolone derivatives” (Sanofi-Aventis, priority 2005, dated 2012):

Target: T1, ROCKII or ROKα (Homo sapiens, UniProt O75116)
T1 construct: purchased Upstate 14-451
Assay: Determination of Rho kinase inhibition (γ33P ATP, Streptavidin Flash Plate)
Type: biochemical
Settings: ATP 40 μM, enzyme 0.1 ng/μl, 20 min at room temperature, tested as salt or free base obtained in the examples
Method: Determination of Rho Kinase Inhibition
To measure Rho-kinase inhibition, IC50 values were determined according to the following protocol:
Buffer: 25 mM Tris pH7.5; 0.02% BSA; 5% Glycerol; 0.008% Triton X100; 2% DMSO, 1 mM DTT; 1 mM MgCl2; 0.5 μCi/well γ^33P ATP
Enzyme: ROCKII or ROKα) (Upstate, Catalog #14-451 Lot #24880U) 0.1 ng/μl Final concentration of ATP in reaction mixture 40 μM
Biotinylated substrate, diluted to 0.25 μM with buffer described above (without ATP)
• 1. 10 μl Tris buffer (±Inhibitor) • 2. Add 30 μL of enzyme solution • 3. Start the reaction with 30 μL of mix substrate/ATP/ATP33 • 4. Incubate for 20 min at room temperature • 5. Stop reaction with 30 μL of 50 mM EDTA • 6. Transfer 50 μL of stopped solution to Streptavidin Flash Plate plus, Perkin Elmer, SMP 103A • 7. Incubate for 30 min at RT • 8. Wash 4 times with 300 μl of PBS/0.1% Tween 20 • 9. Radioactivity in the well was determined

T1 sequence (O75116 whole entry): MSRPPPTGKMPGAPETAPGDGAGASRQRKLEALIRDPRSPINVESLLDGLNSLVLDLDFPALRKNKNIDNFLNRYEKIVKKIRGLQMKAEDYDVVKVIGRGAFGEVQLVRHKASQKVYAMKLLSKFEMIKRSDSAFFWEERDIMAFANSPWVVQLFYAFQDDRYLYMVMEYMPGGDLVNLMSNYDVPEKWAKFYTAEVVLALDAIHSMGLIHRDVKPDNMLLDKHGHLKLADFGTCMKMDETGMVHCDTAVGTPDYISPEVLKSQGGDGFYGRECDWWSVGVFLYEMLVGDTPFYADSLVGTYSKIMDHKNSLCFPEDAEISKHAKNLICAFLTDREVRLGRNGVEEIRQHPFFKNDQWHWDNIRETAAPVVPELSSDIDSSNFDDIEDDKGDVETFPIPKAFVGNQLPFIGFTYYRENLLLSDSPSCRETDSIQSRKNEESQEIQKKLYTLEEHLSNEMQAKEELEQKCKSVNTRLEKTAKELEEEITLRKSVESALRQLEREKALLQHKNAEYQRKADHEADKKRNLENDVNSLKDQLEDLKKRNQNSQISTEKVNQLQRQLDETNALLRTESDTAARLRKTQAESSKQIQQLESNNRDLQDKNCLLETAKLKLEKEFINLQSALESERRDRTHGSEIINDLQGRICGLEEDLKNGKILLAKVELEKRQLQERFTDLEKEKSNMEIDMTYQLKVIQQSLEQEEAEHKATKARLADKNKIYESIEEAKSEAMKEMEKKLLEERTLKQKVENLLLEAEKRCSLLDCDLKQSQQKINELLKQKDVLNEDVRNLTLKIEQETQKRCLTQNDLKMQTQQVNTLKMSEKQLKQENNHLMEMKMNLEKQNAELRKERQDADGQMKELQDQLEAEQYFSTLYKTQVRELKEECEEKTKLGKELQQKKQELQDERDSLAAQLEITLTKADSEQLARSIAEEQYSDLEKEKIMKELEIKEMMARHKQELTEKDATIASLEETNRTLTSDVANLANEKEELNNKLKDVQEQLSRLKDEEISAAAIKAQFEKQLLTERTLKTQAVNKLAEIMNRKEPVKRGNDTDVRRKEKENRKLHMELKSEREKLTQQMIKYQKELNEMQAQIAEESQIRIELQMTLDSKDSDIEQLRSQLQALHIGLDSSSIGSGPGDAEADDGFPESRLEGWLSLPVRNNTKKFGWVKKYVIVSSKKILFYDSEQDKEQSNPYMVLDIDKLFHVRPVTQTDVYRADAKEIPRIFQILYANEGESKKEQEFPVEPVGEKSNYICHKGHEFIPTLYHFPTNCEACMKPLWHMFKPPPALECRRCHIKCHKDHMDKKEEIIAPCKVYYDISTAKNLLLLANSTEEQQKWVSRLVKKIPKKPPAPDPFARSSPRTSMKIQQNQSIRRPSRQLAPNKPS

pIC50	SMILES
+++++ (6.0 ≦ pIC50)	Cc1cc2c(=O)[nH]ccc2cc1OC1CCN(CC2CCOC2)CC1 (centres unmarked) [Example 265]
+++++ (6.0 ≦ pIC50)	CCc1c[nH]c(=O)c2ccc(OC3CCNCC3)cc12 [Example 31]
+++++ (6.0 ≦ pIC50)	Cc1c[nH]c(=O)c2ccc(OC3CCNCC3)cc12 [Example 21]
++++ (5.0 ≦ pIC50 < 6.0)	COc1cc2c(=O)[nH]ccc2cc1OC1CCNCC1 [Example 25]
+++++ (6.0 ≦ pIC50)	CC(C)N1CCC(Oc2cc3ccnc(O)c3cc2Cl)CC1 [Example 55, 7-Chloro-6-(1-isopropyl-piperidin-4-yloxy)-2H-isoquinolin-1-one]
+++++ (6.0 ≦ pIC50)	Cc1cc2c(=O)[nH]ccc2cc1OC1CCN(Cc2ccsc2)CC1 [Example 266]
+++++ (6.0 ≦ pIC50)	O=c1[nH]ccc2cc(OC3CCN(CC4CC4)CC3)ccc12 [Example 58]
+++++ (6.0 ≦ pIC50)	Cc1cc2c(=O)[nH]ccc2cc1OC1CCN(Cc2ccccn2)CC1 [Example 276]
+++++ (6.0 ≦ pIC50)	O=c1[nH]ccc2cc(OC3CCNCC3)c(F)cc12 [Example 23]
+++++ (6.0 ≦ pIC50)	Oc1nccc2cc(OC3CCNCC3)c(Cl)cc12 [Example 54, 7-Chloro-6-(piperidin-4-yloxy)-2H-isoquinolin-1-one]
+++++ (6.0 ≦ pIC50)	CN1CCC(Oc2ccc3c(=O)[nH]ccc3c2)CC1 [Example 40]
+++++ (6.0 ≦ pIC50)	O=c1[nH]cc(Br)c2cc(OC3CCNCC3)ccc12 [Example 52, 4-Bromo-6-(piperidin-4-yloxy)-2H-isoquinolin-1-one]
++++ (5.0 ≦ pIC50 < 6.0)	CCc1c[nH]c(=O)c2cc(F)c(OC3CCNCC3)cc12 [Example 32]
+++++ (6.0 ≦ pIC50)	O=c1[nH]ccc2cc(OC3CCNCC3)c(Br)cc12 [Example 17, 7-Bromo-6-(piperidin-4-yloxy)-2H-isoquinolin-1-one]
+++++ (6.0 ≦ pIC50)	O=c1[nH]ccc2c(Cl)c(OC3CCNCC3)ccc12 [Example 309, 5-Chloro-6-(piperidin-4-yloxy)-2H-isoquinolin-1-one]
+++++ (6.0 ≦ pIC50)	Cc1cc2c(=O)[nH]cc(C)c2cc1OC1CCNCC1 [Example 28]
+++++ (6.0 ≦ pIC50)	CCCN1CCC(Oc2cc3cc[nH]c(=O)c3cc2F)CC1 [Example 101]
+++++ (6.0 ≦ pIC50)	O=c1[nH]ccc2cc(OC3CCNCC3)ccc12 [Example 12, 6-(Piperidin-4-yloxy)-2H-isoquinolin-1-one]
+++++ (6.0 ≦ pIC50)	Cc1cc2c(=O)[nH]ccc2cc1OC1CCN(Cc2ccc(S(C)(=O)=O)cc2)CC1 [Example 275]
++++ (5.0 ≦ pIC50 < 6.0)	O=c1[nH]ccc2cc(OC[C@H]3CCCNC3)ccc12 [Example 49]
